In patent US20260274922A1, “SYNTHETIC ESTROGEN RECEPTOR (ER)-DERIVED PEPTIDE” (THE TEXAS A&M UNIVERSITY SYSTEM, priority 2023, published 2026):
Where a SMILES comes first, the peptide text is derived from it. The star is where a group is joined. Cbz = O=C(OCc1ccccc1)*

T1: IRS1 (Homo sapiens, UniProt P35568)
T1 sequence (P35568 1-1242): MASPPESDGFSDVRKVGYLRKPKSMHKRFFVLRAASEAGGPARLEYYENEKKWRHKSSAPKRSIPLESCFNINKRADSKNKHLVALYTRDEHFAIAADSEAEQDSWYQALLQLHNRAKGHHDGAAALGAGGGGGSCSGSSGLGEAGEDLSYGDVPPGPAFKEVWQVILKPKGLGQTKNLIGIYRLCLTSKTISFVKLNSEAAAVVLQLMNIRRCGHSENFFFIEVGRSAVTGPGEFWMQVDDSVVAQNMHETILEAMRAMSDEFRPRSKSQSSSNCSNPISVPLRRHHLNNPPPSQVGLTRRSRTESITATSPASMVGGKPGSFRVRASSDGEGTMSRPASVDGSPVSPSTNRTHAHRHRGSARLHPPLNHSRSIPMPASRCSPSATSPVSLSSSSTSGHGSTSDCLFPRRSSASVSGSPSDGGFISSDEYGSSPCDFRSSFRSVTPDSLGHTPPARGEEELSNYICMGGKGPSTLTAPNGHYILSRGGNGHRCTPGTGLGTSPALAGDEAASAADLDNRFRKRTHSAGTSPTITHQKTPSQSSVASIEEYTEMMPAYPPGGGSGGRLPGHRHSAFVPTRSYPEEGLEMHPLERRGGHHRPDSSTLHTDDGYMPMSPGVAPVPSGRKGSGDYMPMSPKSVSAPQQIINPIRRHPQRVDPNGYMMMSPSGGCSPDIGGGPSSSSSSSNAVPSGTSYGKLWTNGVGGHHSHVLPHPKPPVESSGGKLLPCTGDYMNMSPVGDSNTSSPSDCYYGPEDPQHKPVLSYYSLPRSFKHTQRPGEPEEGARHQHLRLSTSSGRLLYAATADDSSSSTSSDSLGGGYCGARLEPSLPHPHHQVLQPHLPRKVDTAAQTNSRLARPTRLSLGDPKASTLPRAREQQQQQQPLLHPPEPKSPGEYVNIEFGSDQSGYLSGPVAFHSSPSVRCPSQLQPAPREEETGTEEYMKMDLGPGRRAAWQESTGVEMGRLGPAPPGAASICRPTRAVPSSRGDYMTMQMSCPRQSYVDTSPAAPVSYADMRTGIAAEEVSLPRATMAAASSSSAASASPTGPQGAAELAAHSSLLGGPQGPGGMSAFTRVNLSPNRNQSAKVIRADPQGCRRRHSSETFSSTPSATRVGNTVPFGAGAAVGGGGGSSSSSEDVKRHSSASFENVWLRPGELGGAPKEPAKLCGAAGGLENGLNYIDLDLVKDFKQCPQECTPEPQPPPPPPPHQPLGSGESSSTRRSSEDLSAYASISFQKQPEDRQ

B1: ERα 60-280: ERα 60-280 domain, overexpressed in HepG2 cells (protein, UniProt P03372 60-280, looked up, fragment)
chain: YEFNAAAAANAQVYGQTGLPYGPGSEAAAFGSNGLGGFPPLNSVSPSPLMLLHPPPQLSPFLQPHGQQVPYYLENEPSGYTVREAGPPAFYRPNSDNRRQGGRERLASTNDKGSMAMESAKETRYCAVCNDYASGYHYGVWSCEGCKAFFKRSIQGHNDYMCPATNQCTIDKNRRKSCQACRLRKCYEVGMMKGGIRKDRRGGRMLKHKRQRDDGEGRGEV

How the values were obtained:
Assay type in all cases: cell-based
IRS1 [1] = biological target: T1, IRS1; test: Immunofluorescence staining in HEK293T cells
Protocol: Immunofluorescence staining. Cells were fixed with 4% formaldehyde solution, followed by incubation with blocking buffer (1×PBS/5% normal serum/0.3% Triton X-100) for 1 h. After rinsing three times using PBS, cells were incubated with primary antibodies overnight at 4° C. Cells were washed with PBS and incubated with secondary antibodies (anti-mouse Alexa Flour 594 Conjugated) at room temperature 1-2 h. Cells were covered with DAPI-contained mounting medium. Fluorescent signal was observed using Confocal microscopy (Leica).

HepG2 cells (IRS1, pAKT) = test: Gain-of-function of ERα domains on insulin sensitivity in HepG2 cells; conditions: overexpression
Protocol: (§1) Primary hepatocytes isolation and cell culture. Primary hepatocytes were isolated. Male mice at age of 8-12 weeks were infused with a perfusion buffer A (calcium and magnesium-free HBSS supplemented with 10 mM HEPES, […], 1 mM glucose, and 1% penicillin-streptomycin, pH 7.4) through portal vein for 6-8 min. Then perfusion buffer A was changed to buffer B (calcium and magnesium-free HBSS supplemented with 10 mM HEPES, 1 mM CaCl2), 1 mM glucose, 1% penicillin-streptomycin, and 0.5 mg/mL collagenase II, pH 7.4). […] Liver cells were suspended and passed through a 70 μm cell strainer, followed by centrifuge at 1700 rpm for 2 min. Pellets were resuspended with Percoll at final concentration of 36% and centrifuged at 1800 rpm for 6 min. The hepatocyte pellet was washed and suspended with DMEM supplemented with 10% FBS and 1% penicillin-streptomycin in collagen-coated plates. The HepG2 cell line was purchased from Abcam and cultured with DMEM medium supplemented with 10% FBS and 1% penicillin-streptomycin in collagen-coated plates. The human embryo kidney (HEK) 293 cell line was purchased from Sigma and cultured with DMEM medium supplemented with 10% FBS and 1% penicillin-streptomycin. FBS-free DMEM medium was used to culture cells during the experiments.
(§2) Co-immunoprecipitation and Western blotting analysis. […] Protein bands were detected using a ChemiDoc image system.

ERα mRNA = ERα mRNA expression in mouse primary hepatocytes treated with insulin; conditions: 200 nM insulin for 12 hours
Text: FIGS. 8A and 8B show the hyperinsulinemia decreases ERα mRNA expression in mouse primary hepatocytes. […] Data are presented as mean±SEM. * p<0.05, One-way ANOVA.
RNA extraction and quantitative real-time PCR. Total RNA was extracted from livers or primary hepatocytes using TRIzol (Invitrogen, Thermo Fisher Scientific), purified with chloroform, 80% ethanol, isopropanol, and RNA column, eluted with RNase free water, and reverse transcribed into cDNA using iScript Reverse Transcription Supermix (Bio-Rad, Hercules, CA). Quantitative real-time PCR (qPCR) was conducted using SsoAdvanced Universal SYBR Green Supermix (Bio-Rad, Hercules, CA) on CFX384 real-time PCR detection system (Bio-Rad, Hercules, CA). Q-PCR started with 95° C. incubation for 3 min, followed by 39 cycles of 95° C. for 5 s and 60° C. for 30 s. The threshold cycle (CT) values were obtained and used to calculate the relative transcriptional level of target genes by 2^−ΔΔCT method with Cyclophilin (Cyp) as an internal control. […].

IRS1 [2] = test: IRS1 protein levels in ERα deficient mouse primary hepatocytes treated with MG132; conditions: ERαLivKO hepatocytes, 10 μM MG132 for 3 hours
Protocol: Representative blots are shown. […] Co-immunoprecipitation was performed.
as §1, with “FBS-free DMEM medium was used to culture cells during the experiments.” left out
as §2

| Molecule | colocalization with IRS1 (IRS1 [1]) | enhancement of insulin-stimulated AKT phosphorylation (HepG2 cells (IRS1, pAKT)) | increase in IRS1 (HepG2 cells (IRS1, pAKT)) | other results |
| --- | --- | --- | --- | --- |
| TKASGMALLHEPLNRPQLKIPLERDSSKPAVYNY (Description of sequence: AF1 domain portion sequence) [34-amino acid-peptide, overexpressed in cells] | colocalization with IRS1 | ~ 26% | ~ 80% |  |
| insulin: insulin used to treat primary hepatocytes (200 nM) |  |  |  | mRNA expression levels of ERα (ERα mRNA): significantly decreased |
| CC(C)C[C@@H](C=O)NC(=O)[C@H](CC(C)C)NC(=O)[C@H](CC(C)C)NC(=O)OCc1ccccc1 [MG132] (Cbz-Leu-Leu-Leu-aldehyde) |  |  |  | IRS1 protein levels (IRS1 [2]): significantly increased |
| MTMTLHTKASGMALLHQIQGNELEPLNRPQLKIPLERPLGEVYLDSSKPAVYNYPEGAAY (Description of sequence: ER-alpha amino acids 1-60) [ERα 1-60, ERα amino acids 1-60 domain] | colocalization with IRS1 | ~ 26% | ~ 80% |  |
| B1 |  |  |  | IRS1 protein levels (HepG2 cells (IRS1, pAKT)): no significant effect; insulin-induced AKT phosphorylation (HepG2 cells (IRS1, pAKT)): no significant effect |
